Results on 1 compound are retold here after patent publication US12533359B2, “Method for preventing hair loss” (Icahn School of Medicine at Mount Sinai, priority 2019, dated 2026).

The subject of assay [1] is hair follicle regression (catagen) in back skin. Kind of assay: In vivo contraction inhibition (topical application on back skin during catagen). The arrangement: species or system mice. The conditions noted are these: 1 mM in 20 μl DMSO, topical twice daily P13 to P19, back skin analysed at P20. From the text: To determine whether smooth muscle-like contraction is a main function of the DS to propagate hair follicle regression in vivo, the MLCK pathway was blocked by twice-daily topical application of ML7 throughout catagen on the back skin of mice (FIG. 3G). On the contralateral vehicle control side, follicles regressed normally into telogen with the DP niche relocated next to the SC reservoir (FIG. 3H). […] However, in contrast to ablated follicles, the DS as expected surrounds follicles including DP. […] Patches of lateral back skin measuring 1×1 cm of P13 mice (2 patches per mouse) were clipped and then shaved with a razor blade until no external hair shafts within patches remained. Vehicle-only control DMSO or ML7 HCl (Tocris) dissolved in an equal volume of DMSO (1 mM in 20 μl) was pipetted onto hairless patches and locally rubbed into the skin using a glass rod until visibly dry. Topical applications were performed twice daily from P13 to P19, once in the morning and once in the evening separated by 12 hours. Pieces of back skins including treated areas were then harvested at P20 for downstream analysis.

Assay [2] deals with microdissected hair follicles (dermal sheath contraction). The assay is described as follows: Ex vivo hair follicle contraction assay (live imaging of microdissected follicles, high K+ depolarization). Format: cell-based, mouse. To be noted: preincubation with 200 μM ML7 HCl for 1 hour, follicles from P8 back skin, hydrochloride. The procedure: Whether DS cells can functionally contract in a smooth muscle-like fashion through Ca2+-dependent MLCK activation was then explored. Isolated, short-term cultured DS cells were membrane depolarized by an extracellular K+ spike to activate voltage-gated Ca2+ channels in the presence of Fluo8 fluorescent Ca2+ indicator. The switch from high Na+ to high K+ media led to effective Ca2+ influx within 1.5 minutes (FIG. 3A). […] Next, whether the DS can functionally contract and compress intact hair follicles isolated by microdissection (FIG. 3C) was tested.
Hair follicles were microdissected from P8 back skin under a Leica S6E stereomicroscope in PBS and collected in 24-well plates. Media was then changed to Krebs buffer+glucose with or without 200 μM ML7 HCl (Tocris) and incubated for 1 hour at 37° C. Single follicles were then transferred to a 6 cm petri dishes immersed in Krebs buffer+glucose and immobilized by embedding the hair shaft tips in a 5×5 mm piece of parafilm. Follicles were then imaged under brightfield illumination on a Leica inverted DM6000 microscope in an enclosed live cell chamber at 37° C. with 5% CO2. Images were taken with a 10× air lens with time intervals of 10 seconds. During imaging, media was exchanged for Krebs buffer+glucose with KCl supplanting NaCl and follicles were refocused when necessary, which took a duration of no more than 10 seconds. […]

“Also recorded” adds a separate entry of the source.

Regarding `Cl.O=S(=O)(c1cccc2c(I)cccc12)N1CCCNCC1` [ML7, hexahydro-1-[(5-iodo-1-naphthalenyl)sulfonyl]-1H-1,4-diazepine hydrochloride], the “DP niche relocation to the stem cells” value in assay [1] is given as “the DP remains at the tip of stalled follicles”. For the same compound, the “hair follicle regression into telogen (stalled follicles)” value in assay [1] (contralateral DMSO vehicle control, hydrochloride) is reported as “striking failure of regression with long stalled follicles stranded deep in the dermis; also recorded: blocks hair follicle regression in vivo”. Also, the “reduction of follicle widths in high K+ (follicle contraction)” value in assay [2] is listed as “effectively blocked”.
